Data: patent US20040234610A1, “Medical device and method for inhalation of aerosolized drug with heliox” (priority 2001, published 2004)

What was measured:
[1] = test system: adult patients with severe acute exacerbation of asthma; test: Randomized study, albuterol nebulized with heliox 80:20 vs oxygen (control) through semi-closed system, FEV1 spirometry; type: in vivo, human
Description: Forty-five patients were randomized to receive albuterol nebulized with oxygen (control) versus heliox. At baseline, demographics, outpatient asthma medications, vital signs, oxygen saturation and forced expiratory volume in one second (FEV1) were not different between the two groups. Three consecutive albuterol treatments were given to each group.
The study subjects were adult patients who presented to the Emergency Department at the University of Chicago Medical Center for a severe acute exacerbation of asthma. The study was approved by the Institutional Review Board and all patients enrolled gave written informed consent before beginning the study. Patients 50 years of age or under meeting American Thoracic Society criteria for the diagnosis of asthma were eligible. To assure that only those with severe persistent asthma were studied, only those patients with baseline forced expiratory volume in one second (FEV1) less than fifty percent predicted were enrolled in the study.
The heliox delivery system consisted of a facemask connected to a Y-piece with the nebulizer (Airlife™ Misty-Neb™ Nebulizer) on one limb and a non-rebreather bag on the other limb (as shown in FIG. 1). Heliox flow to the nebulizer was set at 10 liters/minute (via an oxygen calibrated flow meter thus equivalent to 18 L/min Heliox flow). A separate flow of 10 liters/minute of heliox (via an oxygen calibrated flow meter thus equivalent to 18 L/min Heliox flow) was delivered to the non-rebreather bag. […] Each treatment continued until the nebulizer was dry—a period of approximately ten minutes, followed by a fifteen minute washout period. The total time for the study was approximately 90 minutes. Corticosteroid therapy for asthma exacerbations was directed by the emergency room physicians, who were not directly involved in the study.
To assure its accuracy for the purpose of this study, the spirometer was tested every other week using a three liter syringe. In addition, the accuracy of FEV, recordings was tested by having subjects perform forced expiratory maneuvers through the portable spirometer at varying flow rates while it was in-line with a Medical Graphics 1070 pulmonary function testing system. (This system was calibrated daily.) This test was also performed every other week for the first three months of the study and monthly thereafter.
Patients performed a minimum of three forced expiratory maneuvers with values recorded according to the American Thoracic Society recommendations (American Thoracic Society: Standardization of spirometry—1994 update, Am. J. Respir. Crit. Care Med. 152:1107-36 (1995)). All spirometric measurements were made by investigators who were blinded to the gas used for albuterol nebulization. […] Patients were not told explicitly which treatment limb they were randomized to; however, because of potential voice changes while breathing heliox, it was not possible to assure that patients were blinded to which therapy they received.
Demographic data, chronic asthma medications, emergency room corticosteroid administration, vital signs (heart rate, mean arterial pressure, respiratory rate), oxygen saturation by pulse oximetry, emergency room length of stay and hospital admissions from the emergency room were recorded for all patients. Data are expressed as mean±SD when normally distributed and median (interquartile range) when not normally distributed. Interval data were compared using a two-tailed Student's t test or Mann Whitney U test according to normality of distribution, categorical data were compared using Chi square or Fisher Exact test when appropriate. […] The Student-Newman-Keuls test was used to compare differences between heliox and control groups after each nebulization treatment when appropriate. […] A 25% difference in percent change in FEV1 between the control and heliox groups was considered clinically important. […]

[2] = Nebulized particle size distribution by Anderson Cascade Impactor, Y design, drug suspension and different heliox flow rates; type: physicochemical
Description: Additional tests were performed with the ACI described in Example 3 in order to assess the device's ability to nebulize a liquid drug suspension and to assess various heliox flow rate combinations. […]

[3] = 6-6 lpm heliox (nebulizer-side port)
[4] = 10-10 lpm heliox (nebulizer-side port)
[5] = 10-18 lpm heliox (nebulizer-side port)
[6] = 18-0 lpm heliox (nebulizer-side port)
[7] = 18-10 lpm heliox (nebulizer-side port)
[8] = trial 6-6: heliox 6 L/min nebulizer, 6 L/min side port
[9] = trial 10-10: heliox 10 L/min nebulizer, 10 L/min side port
[10] = trial 10-18: heliox 10 L/min nebulizer, 18 L/min side port
[11] = trial 18-0: heliox 18 L/min nebulizer, 0 L/min side port
[12] = trial 18-10: heliox 18 L/min nebulizer, 10 L/min side port

For `CC(C)(C)NCC(O)c1ccc(O)c(CO)c1` (centres unmarked) [albuterol], the “median percent change in FEV1 from baseline” value (from here on “median percent change in FEV1”) ([1]; control group (nebulized with oxygen 10 L/min), after albuterol treatment 1) was 14.6%, the “median percent change in FEV1” value ([1]; control group (oxygen), after treatment 2) was 22.7% and the “median percent change in FEV1” value ([1]; control group (oxygen), after treatment 3) was 26.6%. The “median percent change in FEV1” value ([1]; heliox group (nebulized with heliox 80:20), after albuterol treatment 1, P=0.007 vs control) was 32.4%, the “median percent change in FEV1” value ([1]; heliox group, after treatment 2, P=0.007 vs control) was 51.5% and the “median percent change in FEV1” value ([1]; heliox group, after treatment 3, P=0.016 vs control) was 65.1%. For the same compound, the “0.7 ≦ Mean Fraction < 5.8 μm” value [2, 3] was 0.755, the “Mean Fraction < 0.7 μm” value [2, 3] was 0.112 and the “Mean Fraction ≧ 5.8 μm” value [2, 3] was 0.134. For the same compound, the “0.7 ≦ Mean Fraction < 5.8 μm” value [2, 4] was 0.773, the “Mean Fraction < 0.7 μm” value [2, 4] was 0.159 and the “Mean Fraction ≧ 5.8 μm” value [2, 4] was 0.068. The “0.7 ≦ Mean Fraction < 5.8 μm” value [2, 5] was 0.626, the “Mean Fraction < 0.7 μm” value [2, 5] was 0.306 and the “Mean Fraction ≧ 5.8 μm” value [2, 5] was 0.068. For the same compound, the “0.7 ≦ Mean Fraction < 5.8 μm” value [2, 6] was 0.658, the “Mean Fraction < 0.7 μm” value [2, 6] was 0.224 and the “Mean Fraction ≧ 5.8 μm” value [2, 6] was 0.118. For the same compound, the “0.7 ≦ Mean Fraction < 5.8 μm” value [2, 7] was 0.609, the “Mean Fraction < 0.7 μm” value [2, 7] was 0.317 and the “Mean Fraction ≧ 5.8 μm” value [2, 7] was 0.075. For the same compound, the “Fraction, Adapter” value [2, 8] was 0.033, the “Fraction, Collar” value [2, 8] was 0.034 and the “Fraction, Filter (cut size <0.40 μm)” value [2, 8] was 0.045. For the same compound, the “Fraction, Stage 0 (cut size 9.00 μm, midpt 10.70 μm)” value [2, 8] was 0.023, the “Fraction, Stage 1 (cut size 5.80 μm, midpt 7.22 μm)” value [2, 8] was 0.015 and the “Fraction, Stage 2 (cut size 4.70 μm, midpt 5.22 μm)” value [2, 8] was 0.013. The “Fraction, Stage 3 (cut size 3.30 μm, midpt 3.94 μm)” value [2, 8] was 0.042, the “Fraction, Stage 4 (cut size 2.10 μm, midpt 2.63 μm)” value [2, 8] was 0.171 and the “Fraction, Stage 6 (cut size 0.70 μm, midpt 0.88 μm)” value [2, 8] was 0.130. The “Fraction, Stage 7 (cut size 0.40 μm, midpt 0.53 μm)” value [2, 8] was 0.067, the “Fraction, Tee Piece” value [2, 8] was 0.015 and the “Fraction, Throat (USP) (cut size >9.00 μm, midpt 24.49 μm)” value (“Fraction, Throat (USP)” for short) [2, 8] was 0.013. For the same compound, the “Fraction, Adapter” value [2, 9] was 0.018, the “Fraction, Collar” value [2, 9] was 0.018 and the “Fraction, Filter (cut size <0.40 μm)” value [2, 9] was 0.053. The “Fraction, Stage 0 (cut size 9.00 μm, midpt 10.70 μm)” value [2, 9] was 0.012, the “Fraction, Stage 1 (cut size 5.80 μm, midpt 7.22 μm)” value [2, 9] was 0.011 and the “Fraction, Stage 2 (cut size 4.70 μm, midpt 5.22 μm)” value [2, 9] was 0.002. For the same compound, the “Fraction, Stage 4 (cut size 2.10 μm, midpt 2.63 μm)” value [2, 9] was 0.171, the “Fraction, Stage 6 (cut size 0.70 μm, midpt 0.88 μm)” value [2, 9] was 0.202 and the “Fraction, Stage 7 (cut size 0.40 μm, midpt 0.53 μm)” value [2, 9] was 0.106. For the same compound, the “Fraction, Tee Piece” value [2, 9] was 0.009, the “Fraction, Throat (USP)” value [2, 9] was 0.002 and the “Fraction, Adapter” value [2, 10] was 0.015. The “Fraction, Collar” value [2, 10] was 0.011, the “Fraction, Filter (cut size <0.40 μm)” value [2, 10] was 0.113 and the “Fraction, Stage 0 (cut size 9.00 μm, midpt 10.70 μm)” value [2, 10] was 0.011. The “Fraction, Stage 1 (cut size 5.80 μm, midpt 7.22 μm)” value [2, 10] was 0.006, the “Fraction, Stage 2 (cut size 4.70 μm, midpt 5.22 μm)” value [2, 10] was 0.007 and the “Fraction, Stage 3 (cut size 3.30 μm, midpt 3.94 μm)” value [2, 10] was 0.008. The “Fraction, Stage 4 (cut size 2.10 μm, midpt 2.63 μm)” value [2, 10] was 0.077, the “Fraction, Stage 6 (cut size 0.70 μm, midpt 0.88 μm)” value [2, 10] was 0.232 and the “Fraction, Stage 7 (cut size 0.40 μm, midpt 0.53 μm)” value [2, 10] was 0.192. The “Fraction, Tee Piece” value [2, 10] was 0.024, the “Fraction, Throat (USP)” value [2, 10] was 0.001 and the “Fraction, Adapter” value [2, 11] was 0.027. The “Fraction, Collar” value [2, 11] was 0.011, the “Fraction, Filter (cut size <0.40 μm)” value [2, 11] was 0.088 and the “Fraction, Stage 0 (cut size 9.00 μm, midpt 10.70 μm)” value [2, 11] was 0.026. The “Fraction, Stage 1 (cut size 5.80 μm, midpt 7.22 μm)” value [2, 11] was 0.047, the “Fraction, Stage 2 (cut size 4.70 μm, midpt 5.22 μm)” value [2, 11] was 0.013 and the “Fraction, Stage 3 (cut size 3.30 μm, midpt 3.94 μm)” value [2, 11] was 0.029. For the same compound, the “Fraction, Stage 4 (cut size 2.10 μm, midpt 2.63 μm)” value [2, 11] was 0.124, the “Fraction, Stage 6 (cut size 0.70 μm, midpt 0.88 μm)” value [2, 11] was 0.184 and the “Fraction, Stage 7 (cut size 0.40 μm, midpt 0.53 μm)” value [2, 11] was 0.137. The “Fraction, Tee Piece” value [2, 11] was 0.005, the “Fraction, Throat (USP)” value [2, 11] was 0.002 and the “Fraction, Adapter” value [2, 12] was 0.009. For the same compound, the “Fraction, Collar” value [2, 12] was 0.012, the “Fraction, Filter (cut size <0.40 μm)” value [2, 12] was 0.106 and the “Fraction, Stage 0 (cut size 9.00 μm, midpt 10.70 μm)” value [2, 12] was 0.011. The “Fraction, Stage 1 (cut size 5.80 μm, midpt 7.22 μm)” value [2, 12] was 0.026, the “Fraction, Stage 2 (cut size 4.70 μm, midpt 5.22 μm)” value [2, 12] was 0.006 and the “Fraction, Stage 3 (cut size 3.30 μm, midpt 3.94 μm)” value [2, 12] was 0.016. The “Fraction, Stage 4 (cut size 2.10 μm, midpt 2.63 μm)” value [2, 12] was 0.066, the “Fraction, Stage 6 (cut size 0.70 μm, midpt 0.88 μm)” value [2, 12] was 0.207 and the “Fraction, Stage 7 (cut size 0.40 μm, midpt 0.53 μm)” value [2, 12] was 0.211. The “Fraction, Tee Piece” value [2, 12] was 0.016 and the “Fraction, Throat (USP)” value [2, 12] was 0.001.
